Experiments:
TEAD4 = biological target: T1, TEAD4 (Mus musculus, UniProt Q62296); test: protein thermal shift assay (delta Tm); no binding to palmitoylated TEAD4
T1 construct: FLAG-tagged mTEAD4, depalmitoylated

TEAD1 [1] = biological target: T2, TEAD1 (Homo sapiens, UniProt P28347); test: co-crystal structure ([…] Å); also protein thermal shift; type: binding; set-up: FLAG-tagged hTEAD1, depalmitoylated (thermal shift)
TEAD1 [2] = biological target: T2, TEAD1; test: protein thermal shift assay (delta Tm); type: binding; set-up: FLAG-tagged hTEAD1, depalmitoylated

T1 sequence (Q62296 whole entry): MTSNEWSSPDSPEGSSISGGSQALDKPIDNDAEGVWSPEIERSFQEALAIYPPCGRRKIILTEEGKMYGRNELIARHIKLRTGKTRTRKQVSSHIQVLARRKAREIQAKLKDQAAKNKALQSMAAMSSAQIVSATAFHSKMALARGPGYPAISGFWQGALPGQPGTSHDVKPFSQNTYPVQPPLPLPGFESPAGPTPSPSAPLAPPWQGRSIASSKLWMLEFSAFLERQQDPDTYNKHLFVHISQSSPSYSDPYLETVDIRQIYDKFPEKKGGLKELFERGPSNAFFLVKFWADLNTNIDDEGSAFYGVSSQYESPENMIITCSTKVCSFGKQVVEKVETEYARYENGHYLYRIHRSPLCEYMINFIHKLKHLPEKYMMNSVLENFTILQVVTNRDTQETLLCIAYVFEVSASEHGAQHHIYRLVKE
T2 sequence (P28347 whole entry): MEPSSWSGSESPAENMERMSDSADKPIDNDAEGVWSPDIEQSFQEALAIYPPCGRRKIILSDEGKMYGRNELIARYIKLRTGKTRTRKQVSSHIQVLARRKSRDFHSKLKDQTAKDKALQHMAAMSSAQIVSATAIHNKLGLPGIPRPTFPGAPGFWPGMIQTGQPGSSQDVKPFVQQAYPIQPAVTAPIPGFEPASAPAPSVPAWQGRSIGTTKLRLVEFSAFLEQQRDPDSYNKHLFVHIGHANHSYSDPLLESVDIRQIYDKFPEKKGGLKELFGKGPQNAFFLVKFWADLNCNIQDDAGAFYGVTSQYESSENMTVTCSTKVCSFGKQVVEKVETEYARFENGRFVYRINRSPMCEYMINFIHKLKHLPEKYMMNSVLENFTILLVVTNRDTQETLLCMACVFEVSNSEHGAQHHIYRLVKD

| Compound | protein thermal shift assay (delta Tm); no binding to palmitoylated TEAD4 (TEAD4) | co-crystal structure (2.03 Å); also protein thermal shift (TEAD1 [1]) | protein thermal shift assay (delta Tm) (TEAD1 [2]) |
| --- | --- | --- | --- |
| C=CC(=O)N1CCc2ccc(Oc3ccc(C(F)(F)F)c(F)c3)cc2C1 [OPN-9652, 1-(7-(3-fluoro-4-(trifluoromethyl)phenoxy)-3,4-dihydroisoquinolin-2(1H)-yl)prop-2-en-1-one] | Incubation of these compounds with depalmitoylated TEAD4 resulted in significant Tm shifts, indicating binding and stabilization of target proteins | OPN-9652 occupies the central palmitate-binding pocket and covalently modifies Cys359 |  |
| C=CC(=O)N1CCc2ccc(Oc3ccc(C(F)(F)F)cc3)cc2C1 [OPN-9643, 1-(7-(4-(trifluoromethyl)phenoxy)-3,4-dihydroisoquinolin-2(1H)-yl)prop-2-en-1-one] | Incubation of these compounds with depalmitoylated TEAD4 resulted in significant Tm shifts, indicating binding and stabilization of target proteins |  | protein thermal shift analysis and confirmed the binding of both compounds to depalmitoylated TEAD1 and TEAD4 proteins |

From paper PMC12589586, “Targeting TAZ-TEAD in minimal residual disease enhances the duration of targeted therapy in melanoma models” (Nature Communications, 2025)
